In ChEMBL document CHEMBL1212811, “Chemical phylogenetics of histone deacetylases” (Nat Chem Biol, 2010):
Structures can show the parent of a compound that is named as a salt. Activity calls are given as the source filed them. Peptide text beside a SMILES is read from it. * marks the point of attachment. AMC = Cc1cc(=O)oc2cc(N*)ccc12; Tfa = O=C(C(F)(F)F)*

Assays:
[1] = target: Histone deacetylase 4 (Homo sapiens) (UniProt P56524); assay: Activity of HDAC4 at 10 uM
[2] = target: Histone deacetylase 5 (Homo sapiens) (UniProt Q9UQL6); assay: Activity of HDAC5 at 10 uM
[3] = target: T1, Histone deacetylase 7 (Homo sapiens) (UniProt Q8WUI4); assay: Activity of HDAC7 at 10 uM
T1 sequence (whole entry): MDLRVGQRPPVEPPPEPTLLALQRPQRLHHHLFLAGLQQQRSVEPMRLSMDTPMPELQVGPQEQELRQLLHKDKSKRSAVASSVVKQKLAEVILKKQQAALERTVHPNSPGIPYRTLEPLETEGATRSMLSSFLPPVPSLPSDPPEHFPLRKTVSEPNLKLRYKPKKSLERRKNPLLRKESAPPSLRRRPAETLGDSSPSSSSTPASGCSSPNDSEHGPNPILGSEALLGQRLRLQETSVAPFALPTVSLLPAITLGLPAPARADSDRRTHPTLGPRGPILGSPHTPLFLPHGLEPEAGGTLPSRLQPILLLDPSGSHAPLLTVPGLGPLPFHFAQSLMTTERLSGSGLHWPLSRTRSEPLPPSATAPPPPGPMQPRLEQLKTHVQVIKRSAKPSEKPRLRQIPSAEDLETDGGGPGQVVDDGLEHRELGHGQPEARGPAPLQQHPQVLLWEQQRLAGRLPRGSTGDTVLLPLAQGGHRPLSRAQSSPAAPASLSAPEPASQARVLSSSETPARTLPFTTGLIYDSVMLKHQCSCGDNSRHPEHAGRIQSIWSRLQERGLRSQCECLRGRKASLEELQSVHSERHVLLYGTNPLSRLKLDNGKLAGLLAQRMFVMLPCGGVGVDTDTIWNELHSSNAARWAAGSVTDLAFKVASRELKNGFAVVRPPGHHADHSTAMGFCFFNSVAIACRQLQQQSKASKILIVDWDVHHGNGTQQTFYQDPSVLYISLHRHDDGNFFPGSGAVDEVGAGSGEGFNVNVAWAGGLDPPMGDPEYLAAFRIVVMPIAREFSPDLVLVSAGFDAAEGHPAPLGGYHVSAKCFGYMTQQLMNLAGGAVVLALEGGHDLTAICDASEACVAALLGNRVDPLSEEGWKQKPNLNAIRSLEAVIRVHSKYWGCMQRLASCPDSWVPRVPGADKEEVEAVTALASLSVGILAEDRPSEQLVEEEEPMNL

[4] = target: T2, Histone deacetylase 8 (Homo sapiens) (UniProt Q9BY41); assay: Activity of HDAC8 at 10 uM
T2 sequence (whole entry): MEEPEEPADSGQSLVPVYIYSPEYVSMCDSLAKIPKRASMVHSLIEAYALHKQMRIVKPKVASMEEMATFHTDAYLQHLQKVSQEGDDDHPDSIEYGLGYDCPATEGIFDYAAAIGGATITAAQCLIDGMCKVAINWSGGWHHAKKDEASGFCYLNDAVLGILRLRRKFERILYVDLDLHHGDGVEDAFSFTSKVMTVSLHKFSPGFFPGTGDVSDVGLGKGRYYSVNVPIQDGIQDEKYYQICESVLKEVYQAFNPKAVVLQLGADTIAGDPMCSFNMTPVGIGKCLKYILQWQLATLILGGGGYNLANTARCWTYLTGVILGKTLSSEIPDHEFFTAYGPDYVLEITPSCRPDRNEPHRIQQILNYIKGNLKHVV

[5] = target: Histone deacetylase 9 (Homo sapiens) (UniProt Q9UKV0); assay: Activity of HDAC9 at 10 uM
[6] = target: T3, Protein deacetylase HDAC6 (Homo sapiens) (UniProt Q9UBN7); assay: Inhibition of HDAC6 in human Jurkat cells assessed as hyperacetylation of alpha-tubulin after 24 hrs by immunoblot method; type: cell-based
T3 sequence (whole entry): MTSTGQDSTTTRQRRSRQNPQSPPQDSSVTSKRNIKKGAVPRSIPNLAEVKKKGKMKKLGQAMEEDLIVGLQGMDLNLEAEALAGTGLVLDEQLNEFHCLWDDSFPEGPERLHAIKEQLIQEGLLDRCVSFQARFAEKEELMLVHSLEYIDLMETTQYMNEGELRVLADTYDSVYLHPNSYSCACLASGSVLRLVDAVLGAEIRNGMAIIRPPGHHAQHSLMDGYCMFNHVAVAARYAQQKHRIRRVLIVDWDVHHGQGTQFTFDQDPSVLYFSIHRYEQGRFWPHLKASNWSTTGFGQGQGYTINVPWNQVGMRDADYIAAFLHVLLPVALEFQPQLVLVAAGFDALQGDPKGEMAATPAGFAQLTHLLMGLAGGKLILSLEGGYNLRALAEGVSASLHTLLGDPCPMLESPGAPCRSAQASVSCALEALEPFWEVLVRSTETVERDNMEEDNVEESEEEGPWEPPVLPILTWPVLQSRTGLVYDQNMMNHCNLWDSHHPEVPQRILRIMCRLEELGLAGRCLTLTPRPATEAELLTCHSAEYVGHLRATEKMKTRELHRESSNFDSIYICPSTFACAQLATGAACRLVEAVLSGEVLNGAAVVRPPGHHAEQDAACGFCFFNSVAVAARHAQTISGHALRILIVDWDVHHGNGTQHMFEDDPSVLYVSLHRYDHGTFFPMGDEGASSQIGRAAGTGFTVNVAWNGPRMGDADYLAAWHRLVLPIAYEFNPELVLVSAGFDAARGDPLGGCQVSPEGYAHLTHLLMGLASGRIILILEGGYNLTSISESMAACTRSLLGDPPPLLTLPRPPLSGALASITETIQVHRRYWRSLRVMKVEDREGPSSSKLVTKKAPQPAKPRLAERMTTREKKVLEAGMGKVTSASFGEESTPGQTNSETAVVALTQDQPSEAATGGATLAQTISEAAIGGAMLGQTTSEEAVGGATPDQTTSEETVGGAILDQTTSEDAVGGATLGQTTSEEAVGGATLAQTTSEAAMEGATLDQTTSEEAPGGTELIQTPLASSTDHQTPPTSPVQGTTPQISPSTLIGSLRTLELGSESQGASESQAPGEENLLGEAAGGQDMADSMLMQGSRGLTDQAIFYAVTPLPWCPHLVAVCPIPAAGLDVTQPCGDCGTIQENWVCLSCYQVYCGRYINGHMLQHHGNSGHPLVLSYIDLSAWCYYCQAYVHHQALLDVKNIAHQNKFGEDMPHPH

Sequence of Histone deacetylase 9 (Homo sapiens) (Q9UKV0 whole entry): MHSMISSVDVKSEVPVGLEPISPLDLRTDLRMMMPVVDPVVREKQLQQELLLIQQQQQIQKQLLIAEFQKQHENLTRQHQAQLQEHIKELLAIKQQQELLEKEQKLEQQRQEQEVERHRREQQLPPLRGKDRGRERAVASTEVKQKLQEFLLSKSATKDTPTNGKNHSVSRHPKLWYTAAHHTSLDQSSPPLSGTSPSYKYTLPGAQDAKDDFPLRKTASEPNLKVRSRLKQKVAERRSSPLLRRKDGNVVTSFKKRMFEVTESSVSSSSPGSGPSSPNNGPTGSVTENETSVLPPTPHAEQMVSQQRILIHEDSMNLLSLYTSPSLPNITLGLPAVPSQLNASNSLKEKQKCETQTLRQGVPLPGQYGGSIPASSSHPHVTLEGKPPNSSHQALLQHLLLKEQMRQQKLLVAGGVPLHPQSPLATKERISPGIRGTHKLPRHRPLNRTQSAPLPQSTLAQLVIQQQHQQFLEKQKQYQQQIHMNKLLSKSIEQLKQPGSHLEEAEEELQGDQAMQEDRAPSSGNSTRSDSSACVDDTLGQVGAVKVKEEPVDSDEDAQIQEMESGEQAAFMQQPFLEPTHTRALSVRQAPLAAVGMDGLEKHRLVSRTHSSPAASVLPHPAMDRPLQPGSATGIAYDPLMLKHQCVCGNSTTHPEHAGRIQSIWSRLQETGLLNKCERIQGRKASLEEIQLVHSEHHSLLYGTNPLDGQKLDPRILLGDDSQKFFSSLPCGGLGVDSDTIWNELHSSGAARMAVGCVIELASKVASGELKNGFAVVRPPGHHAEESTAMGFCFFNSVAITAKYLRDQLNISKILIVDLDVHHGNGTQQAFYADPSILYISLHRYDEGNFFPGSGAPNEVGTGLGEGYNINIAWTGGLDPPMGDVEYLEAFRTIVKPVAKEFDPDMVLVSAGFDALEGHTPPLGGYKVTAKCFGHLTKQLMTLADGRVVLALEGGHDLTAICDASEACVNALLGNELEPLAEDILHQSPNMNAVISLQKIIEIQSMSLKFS
Sequence of Histone deacetylase 4 (Homo sapiens) (P56524 whole entry): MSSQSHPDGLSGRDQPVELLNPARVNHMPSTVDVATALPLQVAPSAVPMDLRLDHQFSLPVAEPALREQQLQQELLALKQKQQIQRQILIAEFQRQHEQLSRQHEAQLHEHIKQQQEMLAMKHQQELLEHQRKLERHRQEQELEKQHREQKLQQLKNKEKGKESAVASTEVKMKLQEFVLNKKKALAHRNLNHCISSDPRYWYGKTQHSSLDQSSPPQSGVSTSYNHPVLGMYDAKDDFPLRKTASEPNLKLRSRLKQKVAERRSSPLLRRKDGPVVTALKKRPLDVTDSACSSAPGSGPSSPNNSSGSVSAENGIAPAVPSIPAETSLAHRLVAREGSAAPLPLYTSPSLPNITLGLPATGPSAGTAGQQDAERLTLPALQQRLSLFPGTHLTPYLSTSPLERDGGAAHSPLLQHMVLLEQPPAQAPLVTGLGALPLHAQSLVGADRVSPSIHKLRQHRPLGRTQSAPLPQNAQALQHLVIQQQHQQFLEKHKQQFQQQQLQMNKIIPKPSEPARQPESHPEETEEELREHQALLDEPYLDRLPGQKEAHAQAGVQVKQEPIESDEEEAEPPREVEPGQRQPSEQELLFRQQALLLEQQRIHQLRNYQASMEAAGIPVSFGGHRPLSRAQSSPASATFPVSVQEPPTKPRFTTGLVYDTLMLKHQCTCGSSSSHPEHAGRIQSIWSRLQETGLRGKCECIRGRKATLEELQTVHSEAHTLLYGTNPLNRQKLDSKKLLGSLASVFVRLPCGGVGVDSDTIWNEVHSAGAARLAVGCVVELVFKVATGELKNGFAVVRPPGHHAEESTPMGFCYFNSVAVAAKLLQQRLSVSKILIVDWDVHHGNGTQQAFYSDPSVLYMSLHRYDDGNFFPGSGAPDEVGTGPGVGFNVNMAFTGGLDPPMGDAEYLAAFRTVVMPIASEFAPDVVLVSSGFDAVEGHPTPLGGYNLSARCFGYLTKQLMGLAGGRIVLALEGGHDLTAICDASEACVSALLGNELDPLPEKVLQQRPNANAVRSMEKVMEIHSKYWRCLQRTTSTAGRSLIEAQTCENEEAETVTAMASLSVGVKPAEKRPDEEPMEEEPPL
Sequence of Histone deacetylase 5 (Homo sapiens) (Q9UQL6 whole entry): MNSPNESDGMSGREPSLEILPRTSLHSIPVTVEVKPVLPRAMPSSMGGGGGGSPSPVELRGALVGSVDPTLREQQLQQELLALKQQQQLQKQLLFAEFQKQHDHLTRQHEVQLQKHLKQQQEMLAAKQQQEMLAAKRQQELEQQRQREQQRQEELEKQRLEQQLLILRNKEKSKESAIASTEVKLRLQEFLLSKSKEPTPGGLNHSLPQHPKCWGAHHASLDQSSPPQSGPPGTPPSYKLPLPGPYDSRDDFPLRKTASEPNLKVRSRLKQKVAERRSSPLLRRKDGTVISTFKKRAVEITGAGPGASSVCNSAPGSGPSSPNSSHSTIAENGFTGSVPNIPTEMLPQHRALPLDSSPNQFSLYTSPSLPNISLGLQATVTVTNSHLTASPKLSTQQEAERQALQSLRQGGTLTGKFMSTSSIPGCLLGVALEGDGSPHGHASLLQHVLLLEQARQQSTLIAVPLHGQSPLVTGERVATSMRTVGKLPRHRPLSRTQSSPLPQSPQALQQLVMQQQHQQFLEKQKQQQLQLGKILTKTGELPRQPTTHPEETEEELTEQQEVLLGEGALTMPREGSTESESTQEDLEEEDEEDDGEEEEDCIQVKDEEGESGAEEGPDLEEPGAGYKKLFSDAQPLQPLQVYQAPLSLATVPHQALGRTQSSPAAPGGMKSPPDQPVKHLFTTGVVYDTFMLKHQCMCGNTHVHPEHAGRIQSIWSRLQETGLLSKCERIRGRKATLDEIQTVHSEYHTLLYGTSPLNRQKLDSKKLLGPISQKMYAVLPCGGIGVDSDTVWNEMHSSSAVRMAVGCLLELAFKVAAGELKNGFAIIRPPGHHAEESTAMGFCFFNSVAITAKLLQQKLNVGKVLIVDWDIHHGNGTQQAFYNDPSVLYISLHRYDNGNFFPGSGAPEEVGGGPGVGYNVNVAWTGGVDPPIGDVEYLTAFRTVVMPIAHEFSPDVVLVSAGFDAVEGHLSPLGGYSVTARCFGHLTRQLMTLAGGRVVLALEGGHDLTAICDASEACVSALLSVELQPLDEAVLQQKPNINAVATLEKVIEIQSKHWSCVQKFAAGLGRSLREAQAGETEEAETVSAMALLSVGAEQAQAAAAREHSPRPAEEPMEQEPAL

CC(=O)N[C@@H](CC(C)C)C(=O)NCC(=O)N[C@@H](CCCCNC(=O)C(F)(F)F)C(=O)Nc1ccc2c(C)cc(=O)oc2c1 (Ac-Leu-Gly-Lys(Tfa)-{AMC})
active: Activity [1] | Activity [2] | Activity [3] | Activity [4] | Activity [5]

O=C(/C=C/c1ccc(C(=O)N/N=C/c2ccc(O)c(O)c2O)cc1)NO
active: inhibition [6] Dose-dependent effect
